# Assays:
# kochia = assay: Test A pre-/postemergence herbicide test; format: in vivo, Kochia scoparia
# Method in brief: (§1)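 Visual injury ratings, 0 = no effect, 100 = complete control, taken ~10 days after treatment against untreated greenhouse controls. Preemergence: directed soil spray onto seeded loam/sand pots. Postemergence: spray onto plants at one- to two-leaf stage, 2–10 cm tall.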
# ragweed = assay: Test A pre-/postemergence herbicide test; format: in vivo, Ambrosia elatior
# Method in brief: as §1
# ryegrass, Italian = assay: Test A pre-/postemergence herbicide test; format: in vivo, Lolium multiflorum
# Method in brief: as §1
# blackgrass = assay: Test A postemergence herbicide test; format: in vivo, Alopecurus myosuroides
# Method in brief: (§2)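 Ratings compare treated with untreated plants roughly 10 days after a postemergence application made at the one- to two-leaf stage. Scoring uses 0–100, where 0 means no effect and 100 complete control.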
# galium = assay: Test A postemergence herbicide test; format: in vivo, Galium aparine
# Method in brief: as §2
# rice = assay: Test C flooded paddy test; format: in vivo, Oryza sativa; conditions: Flood
# Method in brief: (§3)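 Ratings reflect visual comparison with controls on a 0–100 scale, where 100 is complete control. Compound is dosed into standing paddy water 3 cm deep over 2-leaf-stage plants, kept in the greenhouse 13 to 15 days.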
# sedge, umbrella = assay: Test C flooded paddy test; format: in vivo, Cyperus difformis; conditions: Flood
# Method in brief: as §3
# ducksalad = assay: Test C flooded paddy test; format: in vivo, Heteranthera limosa; conditions: Flood
# Method in brief: as §3
# [1] = 125 g ai/ha, visual rating, 0 to 100 scale, 0 no effect, 100 complete control, approximately 10 days, preemergence
# [2] = Postemergence, 125 g ai/ha, 0 to 100 scale, 0 is no effect, 100 is complete control
# [3] = preemergence, 500 g ai/ha, 0 to 100 scale, 0 is no effect and 100 is complete control
# [4] = 125 g ai/ha, 0 to 100 scale, 0 is no effect, 100 is complete control
# [5] = 31 g ai/ha, scale of 0 to 100 where 0 is no effect and 100 is complete control, 13 to 15 days
# [6] = 62 g ai/ha, scale of 0 to 100 where 0 is no effect and 100 is complete control, 13 to 15 days
# [7] = 125 g ai/ha, scale of 0 to 100 where 0 is no effect and 100 is complete control, 13 to 15 days
# [8] = 250 g ai/ha, scale of 0 to 100 where 0 is no effect and 100 is complete control, 13 to 15 days
# [9] = Postemergence, 500 g ai/ha, 0 to 100 scale (0 no effect, 100 complete control)
# [10] = Preemergence, 125 g ai/ha, 0 to 100 scale where 0 is no effect and 100 is complete control
# [11] = Postemergence, 125 g ai/ha, visual rating on 0 to 100 scale (0 no effect, 100 complete control), approx. 10 days
# [12] = 500 g ai/ha, 0 to 100 scale (0 no effect, 100 complete control)
SMILES,"Plant response rating, Kochia (kochia; [1])","Plant response rating, Kochia (kochia; [2])","Kochia plant response rating (0 to 100 scale, 0 is no effect, 100 is complete control) (kochia; Postemergence, 500 g ai/ha)","Plant response rating, Kochia (kochia; [3])","Plant response rating, Ragweed (ragweed; [1])","Plant response rating, Ragweed (ragweed; [2])","Ragweed plant response rating (0 to 100 scale, 0 is no effect, 100 is complete control) (ragweed; Postemergence, 500 g ai/ha)","Plant response rating, Ragweed (ragweed; [3])","Plant response rating, Ryegrass, Italian (ryegrass, Italian; [3])","Plant response rating, Blackgrass (blackgrass; [4])","Plant response rating, Galium (galium; [4])","Plant response rating, Rice (rice; [6])","Plant response rating, Rice (rice; [7])","Plant response rating, Rice (rice; [8])","Plant response rating, Sedge, Umbrella (sedge, umbrella; [6])","Plant response rating, Sedge, Umbrella (sedge, umbrella; [7])","Plant response rating, Sedge, Umbrella (sedge, umbrella; [8])","Plant response rating, Ducksalad (ducksalad; [6])","Plant response rating, Ducksalad (ducksalad; [7])","Plant response rating, Ducksalad (ducksalad; [8])",other results
O=C1NCC(c2cccc(OC(F)F)c2)C1C(=O)Nc1ccccc1F (stereo not shown) [Compound 223],30,50,70,80,30,0,30,50,60,60,50,0,0,0,0,0,0,50,65,95,"Plant response rating, Ryegrass, Italian (ryegrass, Italian; [1]): 30; Plant response rating, Ryegrass, Italian (ryegrass, Italian; [2]): 0; Ryegrass, Italian plant response rating (0 to 100 scale, 0 is no effect, 100 is complete control) (ryegrass, Italian; Postemergence, 500 g ai/ha): 40; Blackgrass plant response rating (0 to 100 scale, 0 is no effect, 100 is complete control) (blackgrass; 500 g ai/ha): 70; Galium plant response rating (0 to 100 scale, 0 is no effect, 100 is complete control) (galium; 500 g ai/ha): 60; Plant response rating, Rice (rice; [5]): 0; Plant response rating, Sedge, Umbrella (sedge, umbrella; [5]): 0; Plant response rating, Ducksalad (ducksalad; [5]): 30"
O=C1NCC(c2ccc(C(F)(F)F)cc2)C1C(=O)Nc1ccc(F)c(F)c1F (stereo not shown) [Compound 232],70,80,90,80,30,20,50,90,80,50,60,0,0,15,0,0,0,75,75,95,"Plant response rating, Ryegrass, Italian (ryegrass, Italian; [1]): 40; Plant response rating, Ryegrass, Italian (ryegrass, Italian; [2]): 40; Ryegrass, Italian plant response rating (0 to 100 scale, 0 is no effect, 100 is complete control) (ryegrass, Italian; Postemergence, 500 g ai/ha): 50; Blackgrass plant response rating (0 to 100 scale, 0 is no effect, 100 is complete control) (blackgrass; 500 g ai/ha): 50; Galium plant response rating (0 to 100 scale, 0 is no effect, 100 is complete control) (galium; 500 g ai/ha): 60; Plant response rating, Rice (rice; [5]): 0; Plant response rating, Sedge, Umbrella (sedge, umbrella; [5]): 0; Plant response rating, Ducksalad (ducksalad; [5]): 50"
CN1CC(c2ccc(F)cc2)C(C(=O)Nc2cccc(F)c2F)C1=O (stereo not shown) [Compound 271],–,60,–,80,–,–,–,80,30,50,40,–,0,0,–,0,0,–,70,100,"Plant response rating, Kochia (kochia; [9]): 80; Plant response rating, Kochia (kochia; [10]): 50; Plant response rating, Ragweed (ragweed; [11]): 0; Plant response rating, Ragweed (ragweed; [9]): 60; Plant response rating, Ragweed (ragweed; [10]): 20; Plant response rating, Ryegrass, Italian (ryegrass, Italian; [11]): 0; Plant response rating, Ryegrass, Italian (ryegrass, Italian; [9]): 40; Plant response rating, Ryegrass, Italian (ryegrass, Italian; [10]): 0; Plant response rating, Blackgrass (blackgrass; [12]): 60; Plant response rating, Galium (galium; [12]): 70; Plant response rating, Rice (rice; 500 g ai/ha, scale 0 to 100): 0; Plant response rating, Rice (rice; 1000 g ai/ha, scale 0 to 100): 0; Plant response rating, Sedge, Umbrella (sedge, umbrella; 500 g ai/ha, scale 0 to 100): 0; Plant response rating, Sedge, Umbrella (sedge, umbrella; 1000 g ai/ha, scale 0 to 100): 0; Plant response rating, Ducksalad (ducksalad; 500 g ai/ha, scale 0 to 100): 100; Plant response rating, Ducksalad (ducksalad; 1000 g ai/ha, scale 0 to 100): 100"
CN1CC(c2cccc(C(F)(F)F)c2)C(C(=O)Nc2ccccc2F)C1=O (stereo not shown) [Compound 277],–,30,–,60,–,–,–,20,30,50,70,0,0,0,0,0,0,65,80,85,"Plant response rating, Kochia (kochia; [9]): 30; Plant response rating, Kochia (kochia; [10]): 30; Plant response rating, Ragweed (ragweed; [11]): 30; Plant response rating, Ragweed (ragweed; [9]): 30; Plant response rating, Ragweed (ragweed; [10]): 20; Plant response rating, Ryegrass, Italian (ryegrass, Italian; [11]): 30; Plant response rating, Ryegrass, Italian (ryegrass, Italian; [9]): 40; Plant response rating, Ryegrass, Italian (ryegrass, Italian; [10]): 30; Plant response rating, Blackgrass (blackgrass; [12]): 50; Plant response rating, Galium (galium; [12]): 70; Plant response rating, Rice (rice; 500 g ai/ha, scale 0 to 100): 0; Plant response rating, Sedge, Umbrella (sedge, umbrella; 500 g ai/ha, scale 0 to 100): 0; Plant response rating, Ducksalad (ducksalad; 500 g ai/ha, scale 0 to 100): 95"
